In USRE46943E1, “Radioprotector compounds and methods” (PETER MACCALLUM CANCER INSTITUTE, priority 2010, dated 2018):

Experiments:
[1] = system: transformed human keratinocyte cell line (FEP 1811); assay: Clonogenic survival cell culture assay for cytotoxicity; type: cell-based; settings: Homo sapiens, Keratinocyte, light or radiation study; un-irradiated keratinocytes, one hour drug exposure, colonies counted after eight days; read-out: C50 (concentration of radioprotector that results in 50% clonogenic survival)
Protocol: • i. […] In appropriate cases, tautomers are drawn to illustrate potential hydrogen-bond donating configurations into the minor groove of DNA. • ii. 2-Amino-4-(5′-(4″-methylpiperazin-1″-yl)benzimidazol-2′-yl)aniline was prepared by hydrogenation of 4-(5′-(4″-methylpiperazin-1″-yl)benzimidazol-2′-yl)-2-nitroaniline, using a modification of the method of Kelly et al, Aust. […] 2-Amino-4-(5′-(piperidin-1″-yl)benzimidazol-2′-yl)aniline was prepared by hydrogenation of 2-nitro-4-(5′-(piperidin-1″-yl)benzimidazol-2′-yl)aniline, using a modification of the method of Kelly et al, Aust. […] Ethyl 4-amino-3-nitrobenzenecarboximidate hydrochloride was prepared by reaction of 4-amino-3-nitrobenzonitrile with dry HCl gas in ethanol, using the method of Kelly et al, Aust. […] 5-(4′-Methylpiperazin-1′-yl)-2-nitroaniline was prepared using a modification of the method of Kelly et al, Aust. […] The following chemicals were obtained from the chemical suppliers indicated: 2-furaldehyde (Aldrich), 2-pyridinecarboxaldehyde (Aldrich), 3-fluoropyridine-2-carbaldehyde (Maybridge), 3-trifluoromethylpyridine-2-carboxaldehyde (Apollo Scientific), 6-methyl-2-pyridinecarboxaldehyde (Matrix Scientific), 5-methylpyridine-2-carbonitrile (Apollo Scientific), 4-methyl-2-pyridinecarbonitrile (Aldrich), 4-chloro-2-pyridinecarbonitrile (Aldrich), 4-methoxypicolinonitrile (Combi-Blocks), pyrazinecarbonitrile (Aldrich), 2-quinolinecarbonitrile (Aldrich), 3-isoquinolinecarbonitrile (Aldrich), 1-isoquinolinecarboxylic acid (Aldrich), indazole-3-carboxylic acid (Aldrich), 2-hydroxynicotinic acid (Aldrich), 4-hydroxypiperidine (Aldrich), 1-methylhomopiperazine (Aldrich), 3-hydroxypiperidine (Aldrich), 4-(N-BOC-amino)piperidine (Aldrich), 4-methoxypiperidine (Acros), 4-methyl-3-nitrobenzonitrile (Aldrich), 5-chloro-2-nitroaniline (Aldrich), 2-cyanopyridine (Aldrich), methyl 4-amino-2-methoxybenzoic acid (Aldrich), 4-(trifluoromethyl)-2-pyridinecarbonitrile (Matrix Scientific), cis-2,6-dimethylmorphoiline (Acros), 5-(trifluoromethyl)-2-pyridinecarbonitrile (Advanced Chemical Intermediates) and 5-fluoro-2-pyridinecarbonitrile (Advanced Chemical Intermediates). • ix. […] Melting points were determined using an Electrothermal melting point apparatus, and are uncorrected. […] The abbreviations s for singlet, d for doublet, t for triplet, q for quartet, br for broad and m for muitiplet were used in the assignments of multiplicity. A value approximating the centre of a multiplet is quoted. […] The addition of a few drops of acetic acid to methanol-d4 solutions was used to enhance solubility for the acquisition of ^13C nmr spectra. Mass spectra were recorded on a Micromass Quattro II mass spectrometer and accurate mass analyses were carried out by the School of Chemistry at the University of Melbourne on a Finnigan LTQ-FT model high resolution mass spectrometer. Thin layer chromatography (TLC) was carried out using Merck silica gel 60 F254 aluminium sheets or Merck neutral aluminium oxide 150 F254 sheets. Flash column chromatography was carried out using Ajax silica gel 230-400 mesh. • xi. […] The details are described in detail in Martin et al (4) (the disclosure of which is included herein in its entirety by way of reference), but briefly, mid-log phase monolayer cultures are incubated with various concentrations of the test drugs for one hour, after which the monolayers are washed and dispersed into single cell suspensions using pronase, and finally appropriate numbers of cells are dispensed into Petri dishes. Colonies are counted after eight days incubation. […] The irradiation (with a dose rate of 0.6 Gy per minute) is started 30 minutes after addition of the test drug. After completion of irradiation, incubation of cultures is continued until the total time of exposure to the drug reaches 60 minutes. Cultures are then washed and plated for clonogenic survival as described for the cytotoxicity experiments.

[2] = system: transformed human keratinocyte cell line (FEP 1811); assay: Clonogenic survival cell culture assay for radioprotective activity (12 Gy 137Cs gamma irradiation); type: cell-based; settings: 12 Gy; for DMF10 (dose modification factor at a concentration of 10 microM of radioprotector): 10 microM radioprotector; for DMFm (dose modification factor at maximum protection): DMF=Dp/Dc at survival level Sm; for PF (protection factor = Sm/So): survival at maximum protection vs irradiation only
Excerpt: PF is defined as a ratio of survival at maximum protection Sm and survival after irradiation only So: PF=Sm/So. DMF is defined as a ratio of doses that result in survival level of Sm in the presence Dp and the absence Dc of radioprotector: DMF=Dp/Dc. DMF10 is define in a similar way except that instead of Sm a survival at 10 microM of radioprotector is used.
PF (Protection Factor) is defined as a ratio of survival at maximum protection Sm and survival after irradiation only So:PF=Sm/So. DMF (Dose Modification Factor) is defined as a ratio of doses that result in survival level of Sm in the presence (Dp) and the absence (Dc) of radioprotector: DMF=Dp/Dc. DMF10 is defined in a similar way except that instead of Sm a survival at 10 microM of radioprotector is used.
• i. […] In appropriate cases, tautomers are drawn to illustrate potential hydrogen-bond donating configurations into the minor groove of DNA. • ii. 2-Amino-4-(5′-(4″-methylpiperazin-1″-yl)benzimidazol-2′-yl)aniline was prepared by hydrogenation of 4-(5′-(4″-methylpiperazin-1″-yl)benzimidazol-2′-yl)-2-nitroaniline, using a modification of the method of Kelly et al, Aust. […] 2-Amino-4-(5′-(piperidin-1″-yl)benzimidazol-2′-yl)aniline was prepared by hydrogenation of 2-nitro-4-(5′-(piperidin-1″-yl)benzimidazol-2′-yl)aniline, using a modification of the method of Kelly et al, Aust. […] Ethyl 4-amino-3-nitrobenzenecarboximidate hydrochloride was prepared by reaction of 4-amino-3-nitrobenzonitrile with dry HCl gas in ethanol, using the method of Kelly et al, Aust. […] 5-(4′-Methylpiperazin-1′-yl)-2-nitroaniline was prepared using a modification of the method of Kelly et al, Aust. […] The following chemicals were obtained from the chemical suppliers indicated: 2-furaldehyde (Aldrich), 2-pyridinecarboxaldehyde (Aldrich), 3-fluoropyridine-2-carbaldehyde (Maybridge), 3-trifluoromethylpyridine-2-carboxaldehyde (Apollo Scientific), 6-methyl-2-pyridinecarboxaldehyde (Matrix Scientific), 5-methylpyridine-2-carbonitrile (Apollo Scientific), 4-methyl-2-pyridinecarbonitrile (Aldrich), 4-chloro-2-pyridinecarbonitrile (Aldrich), 4-methoxypicolinonitrile (Combi-Blocks), pyrazinecarbonitrile (Aldrich), 2-quinolinecarbonitrile (Aldrich), 3-isoquinolinecarbonitrile (Aldrich), 1-isoquinolinecarboxylic acid (Aldrich), indazole-3-carboxylic acid (Aldrich), 2-hydroxynicotinic acid (Aldrich), 4-hydroxypiperidine (Aldrich), 1-methylhomopiperazine (Aldrich), 3-hydroxypiperidine (Aldrich), 4-(N-BOC-amino)piperidine (Aldrich), 4-methoxypiperidine (Acros), 4-methyl-3-nitrobenzonitrile (Aldrich), 5-chloro-2-nitroaniline (Aldrich), 2-cyanopyridine (Aldrich), methyl 4-amino-2-methoxybenzoic acid (Aldrich), 4-(trifluoromethyl)-2-pyridinecarbonitrile (Matrix Scientific), cis-2,6-dimethylmorphoiline (Acros), 5-(trifluoromethyl)-2-pyridinecarbonitrile (Advanced Chemical Intermediates) and 5-fluoro-2-pyridinecarbonitrile (Advanced Chemical Intermediates). • ix. […] Melting points were determined using an Electrothermal melting point apparatus, and are uncorrected. […] The abbreviations s for singlet, d for doublet, t for triplet, q for quartet, br for broad and m for muitiplet were used in the assignments of multiplicity. A value approximating the centre of a multiplet is quoted. […] The addition of a few drops of acetic acid to methanol-d4 solutions was used to enhance solubility for the acquisition of ^13C nmr spectra. Mass spectra were recorded on a Micromass Quattro II mass spectrometer and accurate mass analyses were carried out by the School of Chemistry at the University of Melbourne on a Finnigan LTQ-FT model high resolution mass spectrometer. Thin layer chromatography (TLC) was carried out using Merck silica gel 60 F254 aluminium sheets or Merck neutral aluminium oxide 150 F254 sheets. Flash column chromatography was carried out using Ajax silica gel 230-400 mesh. • xi.

Row | SMILES | IC50 [1] [µM] | DMF10 (dose modification factor at a concentration of 10 microM of radioprotector) [2] | DMFm (dose modification factor at maximum protection) [2] | PF (protection factor = Sm/So) [2] | melting point
1 | CN1CCN(c2ccc3nc(-c4ccc5nc(-c6ccco6)[nH]c5c4)[nH]c3c2)CC1 [Example 1, 2-(5′-(5″-(4′″-Methylpiperazin-1′″-yl)benzimidazol-2″-yl)benzimidazol-2′-yl)furan] | 57.3 | 1.14 | 1.37 | 7.7 | 202 to 224 °C (dec.)
2 | CN1CCN(c2ccc3nc(-c4ccc5nc(-c6ncccc6F)[nH]c5c4)[nH]c3c2)CC1 [Example 3, 3-Fluoro-2-(5′-(5″-(4′″-methylpiperazin-1′″-yl)benzimidazol-2″-yl)benzimidazol-2′-yl)pyridine] | 93.1 | 1.40 | 1.80 | 15.3 | 201 to 214 °C
3 | CN1CCN(c2ccc3nc(-c4ccc5nc(-c6ncccc6C(F)(F)F)[nH]c5c4)[nH]c3c2)CC1 [Example 4, 2-(5′-(5″-(4′″-Methylpiperazin-1′″-yl)benzimidazol-2″-yl)benzimidazol-2′-yl)-3-trifluoromethylpyridine] | 190 | 1.41 | 1.99 | 30.5 | 189 to 191 °C
4 | Cc1ccnc(-c2nc3ccc(-c4nc5ccc(N6CCN(C)CC6)cc5[nH]4)cc3[nH]2)c1 [Example 7, 4-Methyl-2-(5′-(5″-(4′″-methylpiperazin-1′″-yl)benzimidazol-2″-yl)benzimidazol-2′-yl)pyridine] | 130 | 2.36 | 2.55 | 183.8 | 200 °C (dec.)
5 | CN1CCN(c2ccc3nc(-c4ccc5nc(-c6cc(Cl)ccn6)[nH]c5c4)[nH]c3c2)CC1 [Example 8, 4-Chloro-2-(5′-(5″-(4′″-methylpiperazin-1′″-yl)benzimidazol-2″-yl)benzimidazol-2′-yl)pyridine] | 80 | 2.12 | 2.20 | 39.6 | 195 °C (dec.)
6 | CNc1ccnc(-c2nc3ccc(-c4nc5ccc(N6CCN(C)CC6)cc5[nH]4)cc3[nH]2)c1 [Example 9, 4-Methylamino-2-(5′-(5″-(4′″-methylpiperazin-1′″-yl)benzimidazol-2″-yl)benzimidazol-2′-yl)pyridine] | 59.9 | 1.14 | 1.55 | 7.1 | 220 °C (dec.)
7 | CN1CCN(c2ccc3nc(-c4ccc5nc(-c6cc(N(C)C)ccn6)[nH]c5c4)[nH]c3c2)CC1 [Example 10, 4-Dimethylamino-2-(5′-(5″-(4′″-methylpiperazin-1′″-yl)benzimidazol-2″-yl)benzimidazol-2′-yl)pyridine] | 18.6 | 1.39 | 1.51 | 10.1 | 216 to 220 °C
8 | COc1ccnc(-c2nc3ccc(-c4nc5ccc(N6CCN(C)CC6)cc5[nH]4)cc3[nH]2)c1 [Example 11, 4-Methoxy-2-(5′-(5″-(4′″-methylpiperazin-1′″-yl)benzimidazol-2″-yl)benzimidazol-2′-yl)pyridine] | 53.6 | 1.95 | 2.28 | 51.4 | 190 °C (dec.)
9 | CN1CCN(c2ccc3nc(-c4ccc5nc(-c6ccc(F)cn6)[nH]c5c4)[nH]c3c2)CC1 [Example 47, 5-fluoro-2-(5′-(5″-(4′″-methylpiperazin-1″-yl)benzimidazol-2″-yl)benzimidazol-2′-yl)pyridine] | 538 | 2.20 | 2.46 | 40.0 | 
10 | C[C@@H]1CN(c2ccc3nc(-c4ccc5nc(-c6ccccn6)[nH]c5c4)[nH]c3c2)C[C@H](C)O1 [Example 52, 2-(5′-(5″-(cis-2′″,6′″-dimethylmorpholino)benzimidazol-2″-yl)benzimidazol-2′-yl)pyridine] | 134 | 1.40 | 1.75 | 55.9 | 
11 | CN(CCO)c1ccc2[nH]c(-c3ccc4[nH]c(-c5ccccn5)nc4c3)nc2c1 [Example 54, 2-(5′-(5″-(3′″-hydroxyethyl-1′″-methylamino)benzimidazol-2″-yl)benzimidazol-2′-yl)pyridine] | 94.3 | 1.15 | 1.87 | 20.2 | 
